Data reported in ChEMBL document CHEMBL1201862, “PubChem BioAssay data set” (2004).
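Step 1: Grow cells in 96-well plates. Step 2: Expose to compound for 48 hours at 5 concentrations. Step 3: Interpolate endpoints linearly; if unreached, use highest concentration. The concentration for 50% growth inhibition is given as GI50.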 Calls of active or inactive are those of the source. No stated cut-off is given here; in the data, active = GI50 up to about 1.1 µM and inactive = higher.

Legend:
Test in all cases: NCI anticancer screen, dose series, 48 h
A498 = test system: A498
CCRF-CEM = test system: CCRF-CEM
HCT-15 = test system: HCT-15
HOP-62 = test system: HOP-62
HT-29 = test system: HT-29
IGROV-1 = test system: IGROV-1
LOX IMVI = test system: LOX IMVI
NCI-H23 = test system: NCI-H23
OVCAR-5 = test system: OVCAR-5
OVCAR-8 = test system: OVCAR-8
RPMI-8226 = test system: RPMI-8226
RXF 393 = test system: RXF 393
SK-MEL-5 = test system: SK-MEL-5
SN12C = test system: SN12C
SNB-75 = test system: SNB-75
SW-620 = test system: SW-620
UO-31 = test system: UO-31
SR = test system: SR

Row | SMILES | GI50 (A498) | GI50 (CCRF-CEM) | GI50 (HCT-15) | GI50 (HOP-62) | GI50 (HT-29) | GI50 (IGROV-1) | GI50 (LOX IMVI) | GI50 (NCI-H23) | GI50 (OVCAR-5) | GI50 (OVCAR-8) | GI50 (RPMI-8226) | GI50 (RXF 393) | GI50 (SK-MEL-5) | GI50 (SN12C) | GI50 (SNB-75) | GI50 (SW-620) | GI50 (UO-31) | GI50 (SR)
1 | CCN(CC)c1c(C(=O)/C=C/c2ccc(F)cc2)c(-c2ccccc2)nn(C)c1=O | 7.57 µM (inactive) | 2.11 µM (inactive) | 10.4 µM | 11.6 µM (inactive) | 6.5 µM (inactive) | 5.98 µM (inactive) | 7.35 µM (inactive) | 4.12 µM (inactive) | 22.4 µM (inactive) | 4.7 µM (inactive) | 2.94 µM (inactive) | 3.13 µM (inactive) | 8.89 µM (inactive) | 6.93 µM (inactive) | 4.51 µM (inactive) | 8.59 µM (inactive) | 11.3 µM (inactive) | 
2 | C/C(CC(=O)Nc1cc(Cl)c(Cl)cc1Cl)=N\NS(=O)(=O)c1ccc(C)cc1 | 53.6 µM (inactive) | 27.5 µM (inactive) |  | 31.8 µM (inactive) | 51.3 µM (inactive) | 37.4 µM (inactive) | 39.3 µM (inactive) | 21.6 µM (inactive) | 53.8 µM (inactive) | 39.3 µM (inactive) | 27.4 µM (inactive) | 24.9 µM (inactive) | 38.3 µM (inactive) |  | 32.6 µM (inactive) | 58.3 µM (inactive) | 21 µM (inactive) | 
3 | COc1ccc2ccnc(Cc3ccc(OCc4ccccc4)c(OC)c3)c2c1 | 21.8 µM (inactive) | 27.4 µM (inactive) | 15.2 µM | 15.8 µM (inactive) | 27.8 µM (inactive) |  |  | 19.8 µM (inactive) | 40.3 µM (inactive) | 19.1 µM (inactive) | 16.2 µM (inactive) |  | 15.1 µM (inactive) | 14.2 µM (inactive) | 27 µM (inactive) | 33.5 µM (inactive) | 6 µM (inactive) | 
4 | CCOC(=O)C1(CC)CCCCC(=O)N1 (stereo unspecified) |  | > 100 µM (inactive) | > 100 µM | > 100 µM (inactive) | > 100 µM (inactive) | > 100 µM (inactive) | > 100 µM (inactive) | > 100 µM (inactive) |  | > 100 µM (inactive) |  | > 100 µM (inactive) |  | > 100 µM (inactive) |  | > 100 µM (inactive) | > 100 µM (inactive) | 
5 | CCN(CC)Cc1cc(Nc2ccnc3ccc4nn(C)nc4c23)ccc1O |  | > 100 µM (inactive) | 16.7 µM | 16.9 µM (inactive) | 4.7 µM (inactive) | 25.2 µM (inactive) | 7.73 µM (inactive) | 15.3 µM (inactive) | 12.6 µM (inactive) | 11.4 µM (inactive) | 7.85 µM (inactive) | 9.25 µM (inactive) | 16.3 µM (inactive) | 11.3 µM (inactive) | 12.3 µM (inactive) | 5.55 µM (inactive) | 11.9 µM (inactive) | 74.6 µM (inactive)
6 | C[C@]12CCC3[C@@H](CC[C@@H]4c5nonc5CC[C@]34C)C1C/C(=N/O)C2=O (stereo partly specified) | > 100 µM (inactive) | 56.5 µM (inactive) | > 100 µM | > 100 µM (inactive) | > 100 µM (inactive) | > 100 µM (inactive) | 11.2 µM (inactive) | > 100 µM (inactive) | > 100 µM (inactive) | > 100 µM (inactive) | 9.48 µM (inactive) | 14.1 µM (inactive) | > 100 µM (inactive) | > 100 µM (inactive) | 0.0885 µM (active) | > 100 µM (inactive) | 5.41 µM (inactive) | 
7 | Cc1c(O)c(=O)ccn1C1OC(CO)C(O)C1O (stereo unspecified) | > 100 µM (inactive) | 39.5 µM (inactive) | 68.1 µM | > 100 µM (inactive) | > 100 µM (inactive) |  | 56.2 µM (inactive) |  | > 100 µM (inactive) | > 100 µM (inactive) | > 100 µM (inactive) | > 100 µM (inactive) | > 100 µM (inactive) | > 100 µM (inactive) | > 100 µM (inactive) | > 100 µM (inactive) | > 100 µM (inactive) | > 100 µM (inactive)
8 | Cc1cc2c(ccc3c(C)cc(=O)oc32)o1 |  | > 100 µM (inactive) | > 100 µM | > 100 µM (inactive) | > 100 µM (inactive) | > 100 µM (inactive) | > 100 µM (inactive) | > 100 µM (inactive) | > 100 µM (inactive) | > 100 µM (inactive) | > 100 µM (inactive) | 78.3 µM (inactive) | > 100 µM (inactive) | > 100 µM (inactive) | 35.6 µM (inactive) | > 100 µM (inactive) | 98.9 µM (inactive) | > 100 µM (inactive)
9 | CCN(CC)C(=O)Cc1c(C(=O)N(CC)CC)c(=O)nc2sccn12 | > 100 µM (inactive) | > 100 µM (inactive) | > 100 µM | > 100 µM (inactive) | > 100 µM (inactive) | > 100 µM (inactive) | > 100 µM (inactive) | > 100 µM (inactive) |  | > 100 µM (inactive) | > 100 µM (inactive) | > 100 µM (inactive) |  | > 100 µM (inactive) | > 100 µM (inactive) | > 100 µM (inactive) | > 100 µM (inactive) | > 100 µM (inactive)
